Experimental data: PubChem BioAssay (NCI)
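Values below derive from 48-hour exposures of cells grown in 96-well plates, with endpoints linearly interpolated between the two concentrations bracketing the appropriate inhibition level. The concentration for full growth arrest is given as TGI.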

Experiments:
Experiment in all cases: growth of human tumour cells (NCI), 48 h
[1] = test system: LXFL 529 NSCLC
[2] = test system: DMS 114 small cell lung
[3] = test system: UO-31 renal
[4] = test system: A549 NSCLC
[5] = test system: RXF 393 renal
[6] = test system: SK-MEL-5 melanoma
[7] = test system: CAKI-1 renal
[8] = test system: A498 renal
[9] = test system: SNB-19 CNS
[10] = test system: OVCAR-4 ovarian
[11] = test system: NCI-H460 lung
[12] = test system: DLD-1 colon
[13] = test system: M19-MEL melanoma
[14] = test system: HOP-62 NSCLC
[15] = test system: SF-295 CNS
[16] = test system: DMS 273 small cell lung
[17] = test system: XF 498 CNS
[18] = test system: UACC-257 melanoma
[19] = test system: SK-MEL-2 melanoma
[20] = test system: MALME-3M melanoma
[21] = test system: SF-268 CNS
[22] = test system: SN12C renal
[23] = test system: RXF-631 renal
[24] = test system: COLO 205 colon
[25] = test system: UACC-62 melanoma
[26] = test system: EKVX NSCLC
[27] = test system: HOP-92 NSCLC
[28] = test system: HL-60(TB) leukemia
[29] = test system: TK-10 renal
[30] = test system: NCI-H23 lung
[31] = test system: 786-0 renal
[32] = test system: OVCAR-5 ovarian
[33] = test system: SNB-78 CNS
[34] = test system: K-562 leukemia
[35] = test system: IGROV1 ovarian
[36] = test system: KM12 colon
[37] = test system: OVCAR-8 ovarian
[38] = test system: HOP-18 NSCLC
[39] = test system: NCI-H226 lung
[40] = test system: LOX IMVI melanoma
[41] = test system: CCRF-CEM leukemia
[42] = test system: HT29 colon
[43] = test system: ACHN renal
[44] = test system: SK-OV-3 ovarian
[45] = test system: SK-MEL-28 melanoma
[46] = test system: MOLT-4 leukemia
[47] = test system: SR leukemia
[48] = test system: SF-539 CNS
[49] = test system: SW-620 colon
[50] = test system: NCI-H522 lung
[51] = test system: HCC-2998 colon
[52] = test system: MDA-MB-435
[53] = test system: RPMI-8226 leukemia
[54] = test system: SNB-75 CNS
[55] = test system: HCT-15 colon
[56] = test system: T-47D breast
[57] = test system: DU-145 prostate
[58] = test system: KM20L2 colon
[59] = test system: BT-549 breast
[60] = test system: HS 578T breast
[61] = test system: MDA-N
[62] = test system: NCI/ADR-RES ovarian
[63] = test system: PC-3 prostate
[64] = test system: MCF7 breast
[65] = test system: MDA-MB-231 breast
[66] = test system: U251 CNS
[67] = test system: HCT-116 colon
[68] = test system: OVCAR-3 ovarian
[69] = test system: M14 melanoma

Compound: N#Cc1ccccc1Nc1ccccc1S
- TGI [1]: 59.3 µM
- TGI [2]: 42.8 µM
- TGI [3]: 72.4 µM
- TGI [4]: > 100 µM
- TGI [5]: 53 µM
- TGI [6]: 44.8 µM
- TGI [7]: > 100 µM
- TGI [8]: > 100 µM
- TGI [9]: 60.5 µM
- TGI [10]: > 100 µM
- TGI [11]: > 100 µM
- TGI [12]: > 100 µM
- TGI [13]: > 100 µM
- TGI [14]: > 100 µM
- TGI [15]: 65.4 µM
- TGI [16]: > 100 µM
- TGI [17]: 40 µM
- TGI [18]: > 100 µM
- TGI [19]: > 100 µM
- TGI [20]: 80.3 µM
- TGI [21]: > 100 µM
- TGI [22]: 97.1 µM
- TGI [23]: > 100 µM
- TGI [24]: > 100 µM
- TGI [25]: 37.8 µM
- TGI [26]: > 100 µM
- TGI [27]: 80.3 µM
- TGI [28]: > 100 µM
- TGI [29]: > 100 µM
- TGI [30]: > 100 µM
- TGI [31]: 78.3 µM
- TGI [32]: 97.8 µM
- TGI [33]: > 100 µM
- TGI [34]: > 100 µM
- TGI [35]: 71.2 µM
- TGI [36]: > 100 µM
- TGI [37]: 94 µM
- TGI [38]: > 100 µM
- TGI [39]: 43.9 µM
- TGI [40]: 33.6 µM
- TGI [41]: 77.4 µM
- TGI [42]: > 100 µM
- TGI [43]: > 100 µM
- TGI [44]: > 100 µM
- TGI [45]: > 100 µM
- TGI [46]: 33.1 µM
- TGI [47]: > 100 µM
- TGI [48]: 35.8 µM
- TGI [49]: 47.1 µM

Compound: CS(=O)(=O)c1nc(Cl)c(Cl)c(C#N)c1Cl
- TGI [50]: 1.28 µM
- TGI [1]: 2.99 µM
- TGI [2]: 32.2 µM
- TGI [3]: 4.31 µM
- TGI [4]: 40.4 µM
- TGI [5]: 3.07 µM
- TGI [51]: 29.8 µM
- TGI [6]: 15.5 µM
- TGI [7]: 1.69 µM
- TGI [8]: 35.3 µM
- TGI [9]: 36 µM
- TGI [52]: 7 µM
- TGI [10]: 3.34 µM
- TGI [11]: 32.4 µM
- TGI [12]: 3.13 µM
- TGI [53]: 14.6 µM
- TGI [14]: 35.6 µM
- TGI [15]: 35.1 µM
- TGI [16]: 24.6 µM
- TGI [54]: 26.9 µM
- TGI [55]: 3.5 µM
- TGI [17]: 7.93 µM
- TGI [18]: 5.52 µM
- TGI [19]: 14.5 µM
- TGI [20]: 4.45 µM
- TGI [21]: 21.9 µM
- TGI [56]: 4.83 µM
- TGI [22]: 5.9 µM
- TGI [23]: 38.9 µM
- TGI [24]: 3.08 µM
- TGI [57]: 21.4 µM
- TGI [58]: 20.8 µM
- TGI [25]: 10.8 µM
- TGI [59]: 3.37 µM
- TGI [26]: 27.4 µM
- TGI [27]: 3.73 µM
- TGI [28]: > 100 µM
- TGI [29]: 5.91 µM
- TGI [30]: 9 µM
- TGI [31]: 4.11 µM
- TGI [32]: 9.41 µM
- TGI [33]: > 36 µM
- TGI [34]: 20.6 µM
- TGI [35]: 14.1 µM
- TGI [60]: > 58.7 µM
- TGI [36]: 17.6 µM
- TGI [37]: 9.77 µM
- TGI [38]: 11.5 µM
- TGI [39]: 24.6 µM
- TGI [61]: 3.5 µM
- TGI [62]: 6.19 µM
- TGI [40]: 4.3 µM
- TGI [41]: > 100 µM
- TGI [42]: 4.35 µM
- TGI [43]: 5.26 µM
- TGI [63]: 11.6 µM
- TGI [64]: 13.2 µM
- TGI [65]: 3.24 µM
- TGI [66]: 11.7 µM
- TGI [44]: 10.7 µM
- TGI [45]: 4.75 µM
- TGI [67]: 4.47 µM
- TGI [68]: 4.73 µM
- TGI [46]: 6.02 µM
- TGI [47]: > 36.4 µM
- TGI [69]: 3.64 µM
- TGI [48]: 11.3 µM
- TGI [49]: 3.13 µM
